Experimental data taken from patent US20170190705A1, “Compositions and Methods for Inhibiting BMP” (THE BRIGHAM AND WOMAN'S HOSPITAL, INC., priority 2014, published 2017).

How the values were obtained:
Format in all cases: biochemical
PKC-η = PKC-η (Homo sapiens, UniProt P24723); test: Kinome profiling PKC-η; settings: read-out: Inhibitory activity PKC-η; for inhibition at 0.1 µM: 100 nM
Description: (§1) . The kinome-wide selectivity was determined following the methods previously reported by Mohedas et al., ACS Chem Biol 2013, 8, 1291-1302 and Sanvitale et al., PLoS One 2013, 8, e62721.

HCK = HCK (Homo sapiens, UniProt P08631); test: Kinome profiling HCK; settings: read-out: Inhibitory activity HCK; for inhibition at 0.1 µM: 100 nM
Description: as §1

SRPK1 = SRPK1 (Homo sapiens, UniProt Q96SB4); test: Kinome profiling SRPK1; settings: read-out: Inhibitory activity SRPK1; for inhibition at 0.1 µM: 100 nM
Description: as §1

MARK3 = MARK3 (Homo sapiens, UniProt P27448); test: Kinome profiling MARK3; settings: read-out: Inhibitory activity MARK3; for inhibition at 0.1 µM: 100 nM
Description: as §1

PAK2 = PAK2 (Homo sapiens, UniProt Q13177); test: Kinome profiling PAK2; settings: read-out: Inhibitory activity PAK2; for inhibition at 0.1 µM: 100 nM
Description: as §1

MUSK = biological target: T1, MUSK (Homo sapiens, UniProt O15146); test: Kinome profiling MUSK; settings: read-out: Inhibitory activity MUSK; for inhibition at 0.1 µM: 100 nM
T1 sequence (O15146 24-869): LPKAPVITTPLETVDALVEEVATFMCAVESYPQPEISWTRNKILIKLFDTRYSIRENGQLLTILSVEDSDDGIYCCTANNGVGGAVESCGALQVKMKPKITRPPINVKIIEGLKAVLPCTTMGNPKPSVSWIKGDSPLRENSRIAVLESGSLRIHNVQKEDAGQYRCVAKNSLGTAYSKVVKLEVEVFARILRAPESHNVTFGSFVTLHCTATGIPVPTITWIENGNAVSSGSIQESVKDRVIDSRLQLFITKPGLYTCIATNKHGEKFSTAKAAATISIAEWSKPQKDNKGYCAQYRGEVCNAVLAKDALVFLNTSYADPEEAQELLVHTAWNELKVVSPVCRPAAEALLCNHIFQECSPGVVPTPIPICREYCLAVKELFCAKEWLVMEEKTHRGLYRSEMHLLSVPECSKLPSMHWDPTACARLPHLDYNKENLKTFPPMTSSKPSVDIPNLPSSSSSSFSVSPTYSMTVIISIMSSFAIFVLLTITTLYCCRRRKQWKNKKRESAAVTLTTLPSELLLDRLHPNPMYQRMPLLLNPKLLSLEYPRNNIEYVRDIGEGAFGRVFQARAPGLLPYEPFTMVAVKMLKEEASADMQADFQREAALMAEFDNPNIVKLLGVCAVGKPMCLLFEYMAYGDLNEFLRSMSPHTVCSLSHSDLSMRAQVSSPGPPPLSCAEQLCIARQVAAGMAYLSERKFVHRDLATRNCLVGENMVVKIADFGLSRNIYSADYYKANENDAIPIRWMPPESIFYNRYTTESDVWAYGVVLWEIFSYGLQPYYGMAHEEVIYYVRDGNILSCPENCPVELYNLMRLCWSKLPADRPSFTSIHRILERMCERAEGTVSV
Description: as §1

IKK-β = biological target: T2, IKK-β (Homo sapiens, UniProt O14920); test: Kinome profiling IKK-β; settings: read-out: Inhibitory activity IKK-β; for inhibition at 0.1 µM: 100 nM
T2 sequence (O14920 1-756): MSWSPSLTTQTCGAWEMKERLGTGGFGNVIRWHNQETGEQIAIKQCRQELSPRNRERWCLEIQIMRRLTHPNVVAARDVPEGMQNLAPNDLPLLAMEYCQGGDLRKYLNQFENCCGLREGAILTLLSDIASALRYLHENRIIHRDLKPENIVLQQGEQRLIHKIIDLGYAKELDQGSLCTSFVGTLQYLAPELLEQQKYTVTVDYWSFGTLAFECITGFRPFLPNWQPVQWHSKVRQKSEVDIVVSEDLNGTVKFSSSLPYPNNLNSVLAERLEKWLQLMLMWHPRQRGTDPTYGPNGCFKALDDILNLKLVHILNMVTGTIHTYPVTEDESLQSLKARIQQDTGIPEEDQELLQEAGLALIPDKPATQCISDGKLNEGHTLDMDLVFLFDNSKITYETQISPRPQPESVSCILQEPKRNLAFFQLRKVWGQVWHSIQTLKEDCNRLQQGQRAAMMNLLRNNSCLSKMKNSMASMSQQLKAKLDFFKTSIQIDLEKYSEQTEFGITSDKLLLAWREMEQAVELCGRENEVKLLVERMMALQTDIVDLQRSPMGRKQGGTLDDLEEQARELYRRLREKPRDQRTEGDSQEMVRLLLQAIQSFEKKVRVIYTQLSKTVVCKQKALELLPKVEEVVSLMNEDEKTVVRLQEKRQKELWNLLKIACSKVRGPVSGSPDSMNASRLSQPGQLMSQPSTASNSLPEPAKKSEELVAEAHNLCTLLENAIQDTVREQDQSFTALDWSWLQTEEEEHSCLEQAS
Description: as §1

TXK = biological target: T3, TXK (Homo sapiens, UniProt P42681); test: Kinome profiling TXK; settings: read-out: Inhibitory activity TXK; for inhibition at 0.1 µM: 100 nM
T3 sequence (P42681 1-527): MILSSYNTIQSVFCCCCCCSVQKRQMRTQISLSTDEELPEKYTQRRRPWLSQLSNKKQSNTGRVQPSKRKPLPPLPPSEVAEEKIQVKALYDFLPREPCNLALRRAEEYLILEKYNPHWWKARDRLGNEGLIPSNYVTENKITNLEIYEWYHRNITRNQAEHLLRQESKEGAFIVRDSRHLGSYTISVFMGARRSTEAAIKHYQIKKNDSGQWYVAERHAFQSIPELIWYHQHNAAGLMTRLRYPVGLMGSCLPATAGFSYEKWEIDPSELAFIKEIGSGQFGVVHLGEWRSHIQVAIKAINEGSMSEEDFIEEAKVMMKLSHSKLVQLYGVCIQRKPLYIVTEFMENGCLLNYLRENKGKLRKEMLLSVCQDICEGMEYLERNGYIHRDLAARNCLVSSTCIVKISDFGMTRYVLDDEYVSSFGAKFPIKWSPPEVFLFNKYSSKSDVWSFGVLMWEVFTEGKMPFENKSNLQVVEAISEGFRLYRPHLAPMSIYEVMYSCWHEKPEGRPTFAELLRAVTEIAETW
Description: as §1

BRK = BRK (Homo sapiens, UniProt Q13882); test: Kinome profiling BRK; settings: read-out: Inhibitory activity BRK; for inhibition at 0.1 µM: 100 nM
Description: as §1

Sequence of PKC-η (P24723 whole entry): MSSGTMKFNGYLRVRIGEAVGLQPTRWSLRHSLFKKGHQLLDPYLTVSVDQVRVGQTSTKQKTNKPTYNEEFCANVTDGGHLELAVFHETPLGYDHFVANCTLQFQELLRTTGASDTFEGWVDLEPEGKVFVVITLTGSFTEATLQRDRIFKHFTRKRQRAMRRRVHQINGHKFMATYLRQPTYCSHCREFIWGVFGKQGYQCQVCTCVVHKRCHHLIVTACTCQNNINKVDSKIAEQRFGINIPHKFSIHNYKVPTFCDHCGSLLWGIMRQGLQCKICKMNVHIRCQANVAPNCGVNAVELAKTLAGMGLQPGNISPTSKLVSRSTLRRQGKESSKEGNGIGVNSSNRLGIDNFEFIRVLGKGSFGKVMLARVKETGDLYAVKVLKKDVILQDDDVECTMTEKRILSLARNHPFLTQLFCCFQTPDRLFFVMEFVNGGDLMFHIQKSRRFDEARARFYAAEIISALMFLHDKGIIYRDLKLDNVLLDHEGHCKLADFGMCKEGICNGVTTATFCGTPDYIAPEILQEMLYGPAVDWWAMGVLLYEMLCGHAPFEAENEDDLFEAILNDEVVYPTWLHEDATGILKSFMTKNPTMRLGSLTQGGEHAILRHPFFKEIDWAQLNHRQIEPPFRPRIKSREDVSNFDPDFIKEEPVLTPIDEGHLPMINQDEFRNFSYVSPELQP
Sequence of PAK2 (Q13177 whole entry): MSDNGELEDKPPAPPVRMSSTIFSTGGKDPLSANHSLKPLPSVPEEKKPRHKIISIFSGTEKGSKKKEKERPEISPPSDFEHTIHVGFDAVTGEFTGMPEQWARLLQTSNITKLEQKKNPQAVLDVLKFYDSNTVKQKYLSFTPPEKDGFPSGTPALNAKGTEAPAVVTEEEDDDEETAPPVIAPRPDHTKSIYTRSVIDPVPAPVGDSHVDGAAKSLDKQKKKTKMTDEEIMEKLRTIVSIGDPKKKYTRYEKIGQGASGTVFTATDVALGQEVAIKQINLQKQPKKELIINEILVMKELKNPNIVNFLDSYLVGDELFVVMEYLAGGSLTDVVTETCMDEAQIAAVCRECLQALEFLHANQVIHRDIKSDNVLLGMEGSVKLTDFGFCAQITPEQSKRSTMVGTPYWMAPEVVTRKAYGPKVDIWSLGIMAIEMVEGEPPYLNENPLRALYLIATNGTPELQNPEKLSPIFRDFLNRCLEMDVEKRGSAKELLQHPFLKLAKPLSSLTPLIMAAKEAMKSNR
Sequence of BRK (Q13882 whole entry): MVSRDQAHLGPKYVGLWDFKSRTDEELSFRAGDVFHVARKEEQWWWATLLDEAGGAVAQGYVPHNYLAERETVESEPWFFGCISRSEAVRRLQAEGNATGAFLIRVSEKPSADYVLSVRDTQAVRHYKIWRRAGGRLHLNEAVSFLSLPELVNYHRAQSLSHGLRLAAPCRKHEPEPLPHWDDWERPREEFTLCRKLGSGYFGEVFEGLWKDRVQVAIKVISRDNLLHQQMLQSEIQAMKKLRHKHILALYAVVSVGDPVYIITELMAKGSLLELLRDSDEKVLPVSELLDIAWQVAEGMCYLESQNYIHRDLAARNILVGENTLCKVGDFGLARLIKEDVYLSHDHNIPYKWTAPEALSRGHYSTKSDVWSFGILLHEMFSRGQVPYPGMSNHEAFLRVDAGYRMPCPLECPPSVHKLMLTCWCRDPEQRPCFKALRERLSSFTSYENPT
Sequence of SRPK1 (Q96SB4 whole entry): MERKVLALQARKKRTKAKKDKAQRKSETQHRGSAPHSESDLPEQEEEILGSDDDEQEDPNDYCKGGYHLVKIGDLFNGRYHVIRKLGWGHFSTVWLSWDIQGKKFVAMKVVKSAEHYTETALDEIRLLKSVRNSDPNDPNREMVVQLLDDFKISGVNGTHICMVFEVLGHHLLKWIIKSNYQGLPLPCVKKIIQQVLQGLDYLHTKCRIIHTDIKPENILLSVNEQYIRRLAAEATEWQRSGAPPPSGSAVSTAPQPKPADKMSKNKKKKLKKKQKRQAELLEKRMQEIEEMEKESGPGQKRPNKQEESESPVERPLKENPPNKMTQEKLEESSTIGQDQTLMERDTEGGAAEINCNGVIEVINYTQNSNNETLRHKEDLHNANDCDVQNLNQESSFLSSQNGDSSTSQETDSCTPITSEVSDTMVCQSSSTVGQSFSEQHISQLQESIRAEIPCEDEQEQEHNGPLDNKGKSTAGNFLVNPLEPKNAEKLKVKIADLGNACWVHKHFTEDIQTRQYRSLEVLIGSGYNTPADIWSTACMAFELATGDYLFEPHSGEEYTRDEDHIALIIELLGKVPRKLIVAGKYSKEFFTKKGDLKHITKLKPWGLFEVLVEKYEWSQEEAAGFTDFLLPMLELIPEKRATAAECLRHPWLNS
Sequence of MARK3 (P27448 whole entry): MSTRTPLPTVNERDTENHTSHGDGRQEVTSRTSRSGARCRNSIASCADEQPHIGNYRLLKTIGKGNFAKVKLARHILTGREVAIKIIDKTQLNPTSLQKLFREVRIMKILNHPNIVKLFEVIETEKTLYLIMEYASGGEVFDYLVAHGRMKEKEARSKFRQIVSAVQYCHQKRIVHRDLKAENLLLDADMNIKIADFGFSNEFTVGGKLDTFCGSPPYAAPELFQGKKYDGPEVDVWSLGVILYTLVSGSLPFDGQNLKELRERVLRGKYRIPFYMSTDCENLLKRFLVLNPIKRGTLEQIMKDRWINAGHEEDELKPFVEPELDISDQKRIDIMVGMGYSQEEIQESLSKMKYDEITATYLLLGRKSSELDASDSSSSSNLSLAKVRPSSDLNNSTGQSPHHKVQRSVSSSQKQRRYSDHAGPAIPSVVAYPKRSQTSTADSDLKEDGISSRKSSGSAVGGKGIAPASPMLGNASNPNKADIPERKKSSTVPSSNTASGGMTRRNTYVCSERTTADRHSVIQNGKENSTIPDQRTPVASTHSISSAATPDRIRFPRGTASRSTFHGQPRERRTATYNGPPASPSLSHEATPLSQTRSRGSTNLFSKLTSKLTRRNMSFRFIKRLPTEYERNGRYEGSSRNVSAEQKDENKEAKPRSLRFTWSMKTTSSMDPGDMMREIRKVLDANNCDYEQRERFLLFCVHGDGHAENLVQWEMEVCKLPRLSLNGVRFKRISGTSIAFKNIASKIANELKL
Sequence of HCK (P08631 whole entry): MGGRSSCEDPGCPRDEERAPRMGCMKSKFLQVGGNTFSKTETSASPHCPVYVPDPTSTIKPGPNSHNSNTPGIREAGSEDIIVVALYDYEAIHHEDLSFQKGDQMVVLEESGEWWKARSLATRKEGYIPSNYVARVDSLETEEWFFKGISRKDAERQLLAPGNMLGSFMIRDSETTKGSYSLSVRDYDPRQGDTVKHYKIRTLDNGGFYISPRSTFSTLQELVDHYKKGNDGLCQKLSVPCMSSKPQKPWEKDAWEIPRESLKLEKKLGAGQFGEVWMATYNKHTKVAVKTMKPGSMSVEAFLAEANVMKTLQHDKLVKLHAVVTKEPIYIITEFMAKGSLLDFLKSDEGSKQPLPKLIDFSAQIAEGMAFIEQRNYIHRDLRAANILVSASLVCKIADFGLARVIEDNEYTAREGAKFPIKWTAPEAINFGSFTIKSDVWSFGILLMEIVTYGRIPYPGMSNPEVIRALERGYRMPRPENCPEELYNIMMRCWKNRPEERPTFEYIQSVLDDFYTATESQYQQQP

Row | SMILES | inhibition at 0.1 µM (PKC-η) [%] | inhibition at 1 µM (PKC-η) [%] | inhibition at 0.1 µM (HCK) [%] | inhibition at 1 µM (HCK) [%] | inhibition at 0.1 µM (SRPK1) [%] | inhibition at 1 µM (SRPK1) [%] | inhibition at 0.1 µM (MARK3) [%] | inhibition at 1 µM (MARK3) [%] | inhibition at 0.1 µM (PAK2) [%] | inhibition at 1 µM (PAK2) [%] | inhibition at 0.1 µM (MUSK) [%] | inhibition at 1 µM (MUSK) [%] | inhibition at 0.1 µM (IKK-β) [%] | inhibition at 1 µM (IKK-β) [%] | inhibition at 0.1 µM (TXK) [%] | inhibition at 1 µM (TXK) [%] | inhibition at 0.1 µM (BRK) [%] | inhibition at 1 µM (BRK) [%]
1 | COc1cc(-c2cc(-c3ccc(N4CCNCC4)cc3)cnc2C)cc(OC)c1OC [Compound 10, 1-(4-(6-methyl-5-(3,4,5-trimethoxyphenyl)pyridin-3-yl)phenyl)piperazine] | 5 | 18 | 3 | 15 | 2 | 2 | 0 | 3 | 0 | 1 | 2 | 2 | 2 | 2 | 12 | 14 | 7 | 36
2 | COc1cc(-c2cc(-c3ccc(N4CCNCC4)cc3)cnc2N)cc(OC)c1OC [Compound 15, 5-(4-(piperazin-1-yl)phenyl)-3-(3,4,5-trimethoxyphenyl)pyridin-2-amine] | 3 | -1 | 41 | 81 | 1 | -1 | 4 | 48 | 0 | 1 | 1 | 5 | 1 | 3 | 21 | 66 | 43 | 92
